Some test systems named below: CCRF-CEM; UACC-62; UACC-257; NCI-H23; HCT-116; SN12C; RXF 393; HCT-15; COLO 205; HOP-92; SK-OV-3; KM12; HT-29; HL-60; TK-10; SK-MEL-5; SW-620; CAKI-1; SF-295.
What all share (assay): DTP human tumour cell line panel, 48 h

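Each compound was tested at five concentrations against cells in 96-well plates for 48 hours. At the GI50, growth is halved.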 Active and inactive are the calls of the source. Rule as the data show it: active = GI50 up to about 1.1 µM and inactive = higher. *1 amine or outer side, *2 acyl side, *3 side chain or, on linkers, in order; H or OH if unused. Where a SMILES comes first, the peptide text is derived from it. Bridges are numbered along the chain shown (N, C = ends). [ ]: non-standard residue; d: D form. The star is where a group is joined. X56 = CC(C)C(C)C(C(=O)[*:2])N(C)[*:1]; Picolinoyl(3-OH) = O=C(c1ncccc1O)*; NMePhg = CN[CH](C(=O)O)c1ccccc1; Hyp = O=C(O)[CH]1C[CH](O)CN1; Sar = CNCC(=O)O

Broadly, the GI50 is the concentration that inhibits growth by half. Consider `CCOC(=O)C(CC(C)C)NC(=O)C(Cc1ccc(N(CCCl)CCCl)cc1)NC(C)=O` (stereo not given), for which the GI50 is 0.621 µM (active) in the test on CCRF-CEM; 1.4 µM (inactive) with UACC-62; 3.74 µM (inactive) with UACC-257; 4.24 µM (inactive) in the test on NCI-H23; 18.7 µM (inactive) in the test with HCT-116; 2.45 µM (inactive) with SN12C. Besides, the GI50 with RXF 393 is 1.93 µM (inactive); in the test on HCT-15 it was 9.71 µM; in the test on COLO 205 it was 3.7 µM (inactive); with HOP-92, 0.63 µM (active); in the test on SK-OV-3 it was 15.8 µM (inactive); with KM12, 20.7 µM (inactive). Besides, the GI50 is 11.7 µM (inactive) in the test on HT-29; 0.426 µM (active) in the test on HL-60; 15.2 µM (inactive) with TK-10; 3.3 µM (inactive) in the test on SK-MEL-5; 7.73 µM (inactive) with SW-620; 1.29 µM (inactive) in the test on CAKI-1. In the test on SF-295, the GI50 was 7.05 µM (inactive).
With `CC(C)CC1NC(=O)C(NC(=O)c2ncccc2O)C(C)OC(=O)C(c2ccccc2)N(C)C(=O)C(C)NC(=O)C(C(C)C(C)C)N(C)C(=O)CN(C)C(=O)C2CC(O)CN2C1=O` (stereo not given) ({Picolinoyl(3-OH)}-TL[Hyp][Sar][X56]A[NMePhg]; ester 1-C; configuration not given here), the GI50 in the test with CCRF-CEM was 60.5 µM (inactive); with UACC-62, 45.1 µM (inactive); in the test with UACC-257, 58.2 µM (inactive); in the test with NCI-H23, 58.6 µM (inactive); in the test on HCT-116, 26.9 µM (inactive); with SN12C, 65.8 µM (inactive). The GI50 in the test with RXF 393 was > 125 µM (inactive); in the test on HCT-15 it was 105 µM; with COLO 205, 80.2 µM (inactive); with HOP-92 it was 74.1 µM (inactive); in the test on SK-OV-3, > 125 µM (inactive); in the test with KM12 it was 80.4 µM (inactive). The GI50 is 37.6 µM (inactive) in the test on HT-29; 58.9 µM (inactive) in the test on HL-60; 24.3 µM (inactive) in the test with SK-MEL-5; 32.7 µM (inactive) with SW-620; 89.1 µM (inactive) in the test on CAKI-1; 85.7 µM (inactive) in the test with SF-295.
Consider `CCC1(O)C[C@H]2CN(CCCc3c([nH]c4ccccc34)[C@@](C(=O)OC)(c3cc4c(cc3OC)N(C)C3[C@](O)(C(=O)OC)[C@H](OC(C)=O)[C@]5(CC)C=CCN6CC[C@]43[C@H]65)C2)C1` (stereo not given in full), for which the GI50 is 0.453 µM (active) in the test on CCRF-CEM; 0.525 µM (active) in the test with UACC-62; 1.34 µM (inactive) in the test on UACC-257; 0.743 µM (active) in the test on NCI-H23; 0.855 µM (active) in the test with HCT-116; 3.61 µM (inactive) with SN12C. Moreover, the GI50 in the test with RXF 393 was 0.834 µM (active); in the test with HCT-15, 2.99 µM; in the test with COLO 205 it was 0.593 µM (active); with HOP-92 it was > 10 µM (inactive); in the test with SK-OV-3, 0.526 µM (active); with KM12 it was 0.578 µM (active). Moreover, the GI50 in the test on HT-29 was 0.425 µM (active); with HL-60, 0.621 µM (active); with TK-10, > 10 µM (inactive); in the test with SK-MEL-5, 0.333 µM (active); with SW-620, 0.497 µM (active); with CAKI-1, 2.33 µM (inactive). For the same compound, the GI50 with SF-295 was 0.275 µM (active).
Regarding `COc1ccc(CC2Cc3ccccc3CCN2)cc1OC` (stereo not given), the GI50 in the test on CCRF-CEM was 28.5 µM (inactive); with UACC-62, > 50 µM (inactive); in the test with UACC-257, 21.6 µM (inactive); in the test with NCI-H23 it was > 50 µM (inactive); in the test with HCT-116 it was 20.9 µM (inactive); in the test on SN12C it was > 50 µM (inactive). The GI50 in the test with RXF 393 is 12 µM (inactive); in the test with HCT-15, greater than 50 µM; in the test on COLO 205, 11.3 µM (inactive); in the test with HOP-92, 17.9 µM (inactive); in the test with SK-OV-3 it was > 50 µM (inactive); with KM12 it was > 50 µM (inactive). For the same compound, the GI50 in the test with HT-29 was 13.8 µM (inactive); in the test on HL-60, 13.2 µM (inactive); in the test with SW-620 it was > 50 µM (inactive); with CAKI-1, > 50 µM (inactive); in the test on SF-295, > 50 µM (inactive).
Regarding `COc1cc2c(cc1OC)C(=O)Cc1ccc3c(c1CNCC2)OCO3`, the GI50 with CCRF-CEM, in the test on UACC-62, in the test on UACC-257, in the test on NCI-H23, in the test on HCT-116 and with SN12C was > 100 µM (inactive) each time. Further, the GI50 with HCT-15 is greater than 100 µM; in the test on COLO 205 it was > 100 µM (inactive); in the test with SK-OV-3, > 100 µM (inactive); in the test on KM12 it was > 100 µM (inactive); in the test with HT-29 it was > 100 µM (inactive); with TK-10, > 100 µM (inactive). The GI50 with SK-MEL-5, in the test with SW-620, in the test with CAKI-1 and in the test on SF-295 was > 100 µM (inactive) each time.
Consider `CC(=O)C1C(=O)C(=O)N(c2ccc(Cl)c(Cl)c2)C1=O` (stereo not given), for which the GI50 with UACC-62 is > 100 µM (inactive); with UACC-257 it was > 100 µM (inactive); in the test on NCI-H23, > 100 µM (inactive); in the test on HCT-116, > 100 µM (inactive); with SN12C, > 100 µM (inactive); in the test with HCT-15, greater than 100 µM. Moreover, the GI50 with COLO 205, with HOP-92, in the test on SK-OV-3, with KM12, in the test with HT-29 and with HL-60 was > 100 µM (inactive) throughout. The GI50 in the test with TK-10, in the test on SK-MEL-5, in the test on SW-620, with CAKI-1 and in the test with SF-295 was > 100 µM (inactive) in each case.
Take `CCN(CC)Cc1sc2nc3ccccc3n2c1-c1ccc(OC)cc1`: the GI50 in the test with CCRF-CEM was 17.1 µM (inactive); with UACC-62 it was 34.8 µM (inactive); with UACC-257, > 100 µM (inactive); in the test with NCI-H23, 26.9 µM (inactive); in the test with HCT-116, 26.6 µM (inactive); with RXF 393, 26.2 µM (inactive). Also, the GI50 is 12.6 µM in the test on HCT-15; 21.5 µM (inactive) in the test with COLO 205; 27.8 µM (inactive) in the test with HOP-92; 27 µM (inactive) with SK-OV-3; 20.6 µM (inactive) in the test on KM12; 18.5 µM (inactive) in the test with HT-29. Moreover, the GI50 was 20.9 µM (inactive) in the test with HL-60; 79.6 µM (inactive) in the test with TK-10; 29 µM (inactive) in the test on SW-620; 38.8 µM (inactive) in the test on CAKI-1; 24.5 µM (inactive) with SF-295.
As for `OCCN(CCO)c1ncnc2[nH]cnc12`, the GI50 in the test on CCRF-CEM, in the test with UACC-62, in the test with UACC-257, with NCI-H23, in the test on HCT-116 and in the test on SN12C was > 100 µM (inactive) each time. In addition, the GI50 in the test with RXF 393 was > 100 µM (inactive); with HCT-15, greater than 100 µM; in the test with COLO 205 it was > 100 µM (inactive); in the test with HOP-92, > 100 µM (inactive); in the test with SK-OV-3, > 100 µM (inactive); in the test with KM12, > 100 µM (inactive). The GI50 is > 100 µM (inactive) in the test on HT-29; 67.1 µM (inactive) with TK-10; > 100 µM (inactive) in the test with SK-MEL-5; > 100 µM (inactive) with SW-620; > 100 µM (inactive) in the test on CAKI-1; > 100 µM (inactive) in the test on SF-295.
For `C=CCCC(=O)CC(=O)OCc1ccccc1`, the GI50 was > 100 µM (inactive) with CCRF-CEM; > 100 µM (inactive) in the test with UACC-62; > 100 µM (inactive) with UACC-257; 8.47 µM (inactive) in the test on NCI-H23; > 100 µM (inactive) in the test with HCT-116; > 100 µM (inactive) in the test with SN12C. Also, the 50% growth inhibitory concentration (GI50) in the test with HCT-15 was greater than 100 µM; with COLO 205, > 100 µM (inactive); in the test with HOP-92 it was > 100 µM (inactive); in the test with SK-OV-3, > 100 µM (inactive); with KM12, > 100 µM (inactive); with HT-29, > 100 µM (inactive). The GI50 with HL-60, with TK-10, with SK-MEL-5, with SW-620, in the test with CAKI-1 and in the test on SF-295 was > 100 µM (inactive) in each case.
For `COC(=O)[C@@H](Nc1ccccc1)[C@@]1(C(=O)OC)SC12c1ccccc1-c1ccccc12`, the GI50 with CCRF-CEM was 39.4 µM (inactive); in the test on UACC-62, 45.2 µM (inactive); in the test with UACC-257, 84.3 µM (inactive); with NCI-H23 it was > 100 µM (inactive); with HCT-116 it was 12.8 µM (inactive); in the test with SN12C, 44.6 µM (inactive). Besides, the GI50 with RXF 393 is 71.3 µM (inactive); in the test on HCT-15, 23.9 µM; in the test with COLO 205, > 100 µM (inactive); in the test on HOP-92 it was 9.29 µM (inactive); with KM12, > 100 µM (inactive); in the test on HT-29, 34.3 µM (inactive). Moreover, the GI50 in the test with HL-60 was > 100 µM (inactive); in the test on TK-10 it was > 100 µM (inactive); in the test on SK-MEL-5, 41.4 µM (inactive); with SW-620 it was 38.3 µM (inactive); with CAKI-1, > 100 µM (inactive); in the test with SF-295, > 100 µM (inactive).
On to `O=c1[nH]nc(Cc2ccccc2)n1/N=C/c1ccc([N+](=O)[O-])cc1`, for which the GI50 in the test with CCRF-CEM, in the test on UACC-62, with UACC-257, in the test on NCI-H23, with HCT-116 and in the test with SN12C was > 100 µM (inactive) in each case. The GI50 in the test with RXF 393 is > 100 µM (inactive); in the test with HCT-15, greater than 100 µM; in the test with COLO 205, > 100 µM (inactive); in the test with HOP-92 it was > 100 µM (inactive); in the test with KM12 it was > 100 µM (inactive); with HT-29 it was > 100 µM (inactive). Moreover, the GI50 in the test with HL-60, with TK-10, in the test with SK-MEL-5, in the test on SW-620, with CAKI-1 and in the test with SF-295 was > 100 µM (inactive) throughout.
